The target of the assay is human σ1 receptor (Homo sapiens, UniProt Q99720). The experiment in a line: Human σ1 receptor radioligand assay ([3H](+)-pentazocine, transfected HEK-293 membranes). The format is binding. On the set-up: μ and σ1 dual binding: key to the marks not given beside the values. Particulars: one class symbol for both Ki-σ1 (human σ1 receptor, A1) and Ki-μ (human μ-opioid receptor, A2). An outline of the steps: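 Membranes from HEK-293 cells transfected with human σ1 receptor (7 μg) incubated with 5 nM [3H](+)-pentazocine in 50 mM Tris-HCl pH 8, 120 min at 37° C. Non-specific binding defined with 10 μM haloperidol. Bound radioligand separated by filtration, washed with ice-cold 10 mM Tris-HCl pH 7.4, and counted by scintillation.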
Chain of human σ1 receptor (Q99720 whole entry): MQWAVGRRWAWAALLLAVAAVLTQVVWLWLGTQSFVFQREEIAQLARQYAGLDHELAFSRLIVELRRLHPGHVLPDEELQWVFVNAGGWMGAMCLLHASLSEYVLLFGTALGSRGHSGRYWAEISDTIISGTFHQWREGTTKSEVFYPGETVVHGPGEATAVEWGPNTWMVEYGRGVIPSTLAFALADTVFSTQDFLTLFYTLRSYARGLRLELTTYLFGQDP

Setting [1] is: read-out: μ and σ1 dual binding.

Data on 35 molecules can be found in patent US10807970B2 (priority 2016, dated 2020).

Where two headings read alike, the source gives them in different places.

Take `CC(C)OCCN(C)[C@@H]1CCN([C@]2(C(=O)c3ccccn3)CCOC(C)(C)C2)C1` [Example 144, ((R)-4-((R)-3-((2-isopropoxyethyl)(methyl)amino)pyrrolidin-1-yl)-2,2-dimethyltetrahydro-2H-pyran-4-yl)(pyridin-2-yl)methanone]: the Ki under setting [1] was less than 500 nM.
With `CC(C)(O)COCCN1CCN(C2(C(=O)c3ccccn3)CCOC(C)(C)C2)CC1` (centres unmarked) [Example 70, (4-(4-(2-(2-hydroxy-2-methylpropoxy)ethyl)piperazin-1-yl)-2,2-dimethyltetrahydro-2H-pyran-4-yl)(pyridin-2-yl)methanone], the “μ and σ1 dual binding” value is listed as “++”.
Still for that read-out and setting: to `CC1(C)CC(C(=O)c2ccccn2)(N2CCN(Cc3ccccn3)CC2)CCO1` (centres unmarked) [Example 50, (2,2-dimethyl-4-(4-(pyridin-2-ylmethyl)piperazin-1-yl)tetrahydro-2H-pyran-4-yl)(pyridin-2-yl)methanone] belongs “++”.
The molecule `CC1(C)CC(C(=O)c2ccccn2)(N2CCN(CCc3ccccc3F)CC2)CCO1` (centres unmarked) [Example 111, (4-(4-(2-fluorophenethyl)piperazin-1-yl)-2,2-dimethyltetrahydro-2H-pyran-4-yl)(pyridin-2-yl)methanone] had a Ki (μ and σ1 dual binding) of less than 500 nM.
With `COCCN1CCN(C2(C(=O)c3ccccn3)CCOC(C)(C)C2)CC1` (centres unmarked) [Example 68, (4-(4-(2-methoxyethyl)piperazin-1-yl)-2,2-dimethyltetrahydro-2H-pyran-4-yl)(pyridin-2-yl)methanone], the Ki under setting [1] is greater than 500 nM.
Turning to `CC(C)C1(N2CCN(CCc3cc(F)ccc3F)CC2)CCOC(C)(C)C1` (centres unmarked) [Example 92, 1-(2,5-difluorophenethyl)-4-(4-isopropyl-2,2-dimethyltetrahydro-2H-pyran-4-yl)piperazine], the Ki (μ and σ1 dual binding) is less than 500 nM.
In the case of `CC(C)OCCN1CC2CN(C3(C(=O)c4ccccn4)CCOC(C)(C)C3)CC2C1` (centres unmarked) [Example 73, (4-(5-(2-isopropoxyethyl)hexahydropyrrolo[3,4-c]pyrrol-2(1H)-yl)-2,2-dimethyltetrahydro-2H-pyran-4-yl)(pyridin-2-yl)methanone], the “μ and σ1 dual binding” value was “++”.
For `CC1(C)CC(C(=O)c2ccccn2)(N2CCN(Cc3ccccc3)CC2)CC(C)(C)O1` [Example 17, (4-(4-benzylpiperazin-1-yl)-2,2,6,6-tetramethyltetrahydro-2H-pyran-4-yl)(pyridin-2-yl)methanone], the “μ and σ1 dual binding” value is on record as “++”.
Consider `CN(Cc1ccccc1)[C@@H]1CCN([C@@]2(C(=O)c3ccccn3)CCOC(C)(C)C2)C1` [Example 143], for which the “μ and σ1 dual binding” value is “++”.
With `CC1(C)CC(C(=O)c2ccccn2)(N2CCN(CCc3ccncc3)CC2)CCO1` (centres unmarked) [Example 81, (2,2-dimethyl-4-(4-(2-(pyridin-4-yl)ethyl)piperazin-1-yl)tetrahydro-2H-pyran-4-yl)(pyridin-2-yl)methanone], the Ki under setting [1] is greater than 500 nM.
`C[C@H]1C[C@@](C(=O)c2ccccn2)(N2CCN(CCc3ccccc3)CC2)CCO1` [Example 241, ((2S,4S)-2-methyl-4-(4-phenethylpiperazin-1-yl)tetrahydro-2H-pyran-4-yl)(pyridin-2-yl)methanone]: the Ki under setting [1] was less than 500 nM.
Regarding `CC(C)OCCN1CCN([C@@]2(C(=O)c3ccccn3)CCO[C@H](C)C2)CC1` [Example 95], the “μ and σ1 dual binding” value was “++”.
On the same count and under the same terms, to `CC(C)OCCN1CCN(C2(C(=O)c3ccccn3)CC(C)(C)OC(C)(C)C2)CC1` [Example 72, (4-(4-(2-isopropoxyethyl)piperazin-1-yl)-2,2,6,6-tetramethyltetrahydro-2H-pyran-4-yl)(pyridin-2-yl)methanone] belongs “++”.
Consider `CC1(C)CC(C(=O)c2ccccn2)(C2CCN(Cc3cccc(F)c3)CC2)CCO1` (centres unmarked) [Example 108, (4-(1-(3-fluorobenzyl)piperidin-4-yl)-2,2-dimethyltetrahydro-2H-pyran-4-yl)(pyridin-2-yl)methanone], for which, under “μ and σ1 dual binding”, the Ki was less than 500 nM.
For `CC(C)OCCN1CCN([C@@]2(C(=O)c3ccccn3)CCOC(C)(C)C2)CC1` [Example 134, (S)-(4-(4-(2-isopropoxyethyl)piperazin-1-yl)-2,2-dimethyltetrahydro-2H-pyran-4-yl)(pyridin-2-yl)methanone], the “μ and σ1 dual binding” value is reported as “++”.
Turning to `CC1(C)CC(C(=O)c2ccccn2)(C2CCN(Cc3ccccc3F)CC2)CCO1` (centres unmarked) [Example 110, (4-(1-(2-fluorobenzyl)piperidin-4-yl)-2,2-dimethyltetrahydro-2H-pyran-4-yl)(pyridin-2-yl)methanone], the “μ and σ1 dual binding” value is recorded as “++”.
Consider `CC(C)OCCN1CCN([C@@]2(C(=O)c3ccccn3)CCO[C@@H](C)C2)CC1` [Example 190, ((2S,4S)-4-(4-(2-isopropoxyethyl)piperazin-1-yl)-2-methyltetrahydro-2H-pyran-4-yl)(pyridin-2-yl)methanone], for which the “μ and σ1 dual binding” value was “++”.
As to `CC1(C)CC(C(=O)c2ccccn2)(N2CCN(CCc3ccncc3F)CC2)CCO1` (centres unmarked) [Example 85, (4-(4-(2-(3-fluoropyridin-4-yl)ethyl)piperazin-1-yl)-2,2-dimethyltetrahydro-2H-pyran-4-yl)(pyridin-2-yl)methanone], the Ki (μ and σ1 dual binding) was less than 500 nM.
With `CC1(C)CC(C(=O)c2ccccn2)(N2CCN(CCC(F)(F)F)CC2)CCO1` (centres unmarked) [Example 127, (2,2-dimethyl-4-(4-(3,3,3-trifluoropropyl)piperazin-1-yl)tetrahydro-2H-pyran-4-yl)(pyridin-2-yl)methanone], the Ki under setting [1] was greater than 500 nM.
On to `CC(C)OCCN1CCN(C2(C(=O)c3ccccn3)CCOC2)CC1` (centres unmarked) [Example 74, (3-(4-(2-isopropoxyethyl)piperazin-1-yl)tetrahydrofuran-3-yl)(pyridin-2-yl)methanone], for which the “μ and σ1 dual binding” value was “++”.
Turning to `CC(C)CCN1CCN([C@]2(C(=O)c3ccccn3)CCO[C@@H](C)C2)CC1` [Example 169], under setting [1], the Ki is less than 500 nM.
Turning to `C[C@@H]1C[C@@](C(=O)c2ccccn2)(N2CCN(Cc3ccccc3)CC2)CCO1` [Example 28], the “μ and σ1 dual binding” value is on record as “++”.
On to `CC1(C)CC(C(=O)c2cccc(C(F)(F)F)n2)(N2CCN(Cc3ccccc3)CC2)CCO1` (centres unmarked) [Example 15, (4-(4-benzylpiperazin-1-yl)-2,2-dimethyltetrahydro-2H-pyran-4-yl)(6-(trifluoromethyl)pyridin-2-yl)methanone], for which, under “μ and σ1 dual binding”, the Ki is less than 100 nM.
For `COc1cc(CN2CCN(C3(C(=O)c4ccccn4)CCOCC3)CC2)ccc1F` [Example 198, (4-(4-(4-fluoro-3-methoxybenzyl)piperazin-1-yl)tetrahydro-2H-pyran-4-yl)(pyridin-2-yl)methanone], the Ki under setting [1] is greater than 500 nM.
Consider `CC(C)CCN1CCN(C2(C(=O)c3ccccc3)CCOC(C)(C)C2)CC1` (centres unmarked) [Example 12, (4-(4-isopentylpiperazin-1-yl)-2,2-dimethyltetrahydro-2H-pyran-4-yl)(phenyl)methanone], for which the Ki (μ and σ1 dual binding) was less than 500 nM.
Turning to `CC[C@@]1(N2CCN(CCc3ccccc3)CC2)CCOC(C)(C)C1` [Example 113, (R) 1-(4-ethyl-2,2-dimethyltetrahydro-2H-pyran-4-yl)-4-phenethylpiperazine], the “μ and σ1 dual binding” value is “++”.
In the case of `CC[C@]1(N2CCN(Cc3ccc(C#N)cc3)CC2)CCO[C@H](C)C1` [Example 251, 4-((4-((2R,4S)-4-ethyl-2-methyltetrahydro-2H-pyran-4-yl)piperazin-1-yl)methyl)benzonitrile], under setting [1], the Ki was greater than 500 nM.
Take `CC(C)(O)CCN1CCN(C2(C(=O)c3ccccn3)CCOC(C)(C)C2)CC1` (centres unmarked) [Example 90, (4-(4-(3-hydroxy-3-methylbutyl)piperazin-1-yl)-2,2-dimethyltetrahydro-2H-pyran-4-yl)(pyridin-2-yl)methanone]: the “μ and σ1 dual binding” value is given as “++”.
Molecule `CC(C)CN1CCN(C2(C(=O)c3ccccc3)CCOC3(CCCC3)C2)CC1` (centres unmarked) [Example 7, (9-(4-isobutylpiperazin-1-yl)-6-oxaspiro[4.5]decan-9-yl)(phenyl)methanone] displayed a Ki (μ and σ1 dual binding) of less than 100 nM.
For `CC(C)OCCN1CCN(C2(C(=O)c3ccccn3)CCOCC2)CC1` [Example 185, (4-(4-(2-isopropoxyethyl)piperazin-1-yl)tetrahydro-2H-pyran-4-yl)(pyridin-2-yl)methanone], the “μ and σ1 dual binding” value is listed as “++”.
Consider `CC1(N2CCN(Cc3ccccc3)CC2)CCOCC1` [Example 156, 1-Benzyl-4-(4-methyltetrahydro-2H-pyran-4-yl)piperazine], for which the “μ and σ1 dual binding” value is “++”.
Take `CC(C)OCCN1CCN(C2(C(=O)c3ccccn3)CCOC(C)(C)C2)CC1` (centres unmarked) [Example 65, (4-(4-(2-isopropoxyethyl)piperazin-1-yl)-2,2-dimethyltetrahydro-2H-pyran-4-yl)(pyridin-2-yl)methanone]: the Ki under setting [1] was less than 500 nM.
Turning to `CC(C)OCCN1CCN([C@]2(C(=O)c3ccccn3)CCO[C@H](C)C2)CC1` [Example 189, ((2R,4R)-4-(4-(2-isopropoxyethyl)piperazin-1-yl)-2-methyltetrahydro-2H-pyran-4-yl)(pyridin-2-yl)methanone], under setting [1], the Ki is greater than 500 nM.
`CC(C)CCN(C)[C@H]1CCN([C@@]2(C(=O)c3ccccn3)CCOC(C)(C)C2)C1` [Example 151, ((S)-4-((S)-3-(isopentyl(methyl)amino)pyrrolidin-1-yl)-2,2-dimethyltetrahydro-2H-pyran-4-yl)(pyridin-2-yl)methanone] yielded a Ki (μ and σ1 dual binding) of less than 500 nM.
As for `CC(C)OCCN(C)[C@H]1CCN([C@@]2(C(=O)c3ccccn3)CCOC(C)(C)C2)C1` [Example 147, ((S)-4-((S)-3-((2-isopropoxyethyl)(methyl)amino)pyrrolidin-1-yl)-2,2-dimethyltetrahydro-2H-pyran-4-yl)(pyridin-2-yl)methanone], the “μ and σ1 dual binding” value is reported as “++”.
